Earlier results, collected in patent US20240139480A1, “RETENTIVE DEVICES FOR GASTROINTESTINAL TRACT” (Teva Pharmaceutical Industries Ltd., priority 2021, published 2024).

Details: given as ester prodrug; extensive intestinal esterase degradation

**Q.** Which bioavailability does the source give for `CC(C)OC(=O)OCOP(=O)(CO[C@H](C)Cn1cnc2c(N)ncnc21)OCOC(=O)OC(C)C` [Tenofovir disoproxil] here?
**A.** The bioavailability was “about 30%”.
